Data on eleven molecules can be found in patent US11427553B2, “Dihydrooxadiazinones” (Bayer Aktiengesellschaft, priority 2017, dated 2022).

The structures appear in SMILES notation.

For one data set, the target named is human full length PDE3B (Homo sapiens (Human), UniProt Q13370). The data set is described as follows: Assay 5 PDE3B enzyme inhibition (3H-cAMP SPA). The class given is biochemical. The following applies: Sf9 cell extract. The procedure, abridged:
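Sf9 cell extract expressing human full-length PDE3B, diluted for linear kinetics (<70% substrate use), in 50 mM Tris/HCl pH 7.5, 8.3 mM MgCl2, 1.7 mM EDTA. [8-3H]cAMP substrate, 60 min at room temperature; stopped with yttrium SPA beads, scintillation counting. IC50 from sigmoidal activity vs log concentration curves.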

In another data set the test system is SK-MEL-3 cells. In words: Assay 1 cell proliferation measurement (CTG, 72 h), SK-MEL-3. Type of data set: cell-based, human. To be noted: Homo sapiens, SK-MEL3; Assay 1, 72 h, Cell Titer Glo; read-out: SK-MEL-3 IC50 [nM] (melanoma). In short, it runs like this: (§1)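 Cells were plated, grown overnight at 37 °C, then treated 72 h with a 10-step 2.5-fold dilution series from 100 nM maximum final (0.3% DMSO vehicle). Viability was read by CellTiter-Glo luminescence. IC50 from a 4-parameter fit, normalised to a 0 h plate (maximum inhibition) and DMSO control (minimum inhibition).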

For the next data set, the system named is H4 cells. The data set is described as follows: Assay 1 cell proliferation measurement, H4. Type of data set: cell-based. The following applies: Homo sapiens; Astrocytoma; read-out: Anti-proliferation IC50 [nM] H4.
The next data set has as its system HeLa cells. In words: Assay 1 cell proliferation measurement (CTG, 72 h), HeLa. Type of data set: cell-based, human. The following applies: Homo sapiens, HeLa; Assay 1, 72 h, Cell Titer Glo; read-out: HeLa IC50 [nM] (Cervical cancer). The procedure, abridged:
as §1
(In ATP-based viability assays light output follows the ATP content of the culture.)

Another data set concerns the target human full length PDE3A (Homo sapiens (Human), UniProt Q14432). The data set is described as follows: Assay 4 PDE3A enzyme inhibition (3H-cAMP SPA). The class given is biochemical. The following applies: Sf9 cell extract. In short, it runs like this:
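In this SPA format, the 60-min room-temperature reaction used 0.025 μCi [8-3H]cAMP and diluted full-length PDE3A from Sf9 cells. Percentage activity was plotted against log compound concentration to derive IC50.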

Data set [1] is described as follows: Assay 6 in vitro metabolic stability in cryopreserved human hepatocytes (CL, Fmax). Type of data set: in vitro ADME. The following applies: 1 μM test compound; for Clblood: hepatic in vivo blood clearance calculated (well-stirred) from half-life in cryopreserved human hepatocytes; for Fmax: maximal oral bioavailability calculated from half-life in cryopreserved human hepatocytes. As to the method: Assay 6 Method for Human Cryo Hepatocytes:
Investigation of In Vitro Metabolic Stability in Cryopreserved Human Hepatocytes (Including Calculation of Hepatic In Vivo Blood Clearance (CL) and Maximal Oral Bioavailability (Fmax))
Cryopreserved Hepatocytes (e.g. purchased from Celsis InVitroTechnologies) were briefly thawed, washed with 45 mL pre-warmed in in vitro GRO HT medium and centrifuged for 5 min at 50×g. The cell pellet was resuspended in 5 ml of Krebs-Henseleit […] (KHB). Cell viability was determined by trypan blue exclusion.
For the metabolic stability assay liver cells were distributed in WME containing 5% FCS to glass vials at a density of 1.0×10^6 vital cells/ml. The test compound was added to a final concentration of 1 μM. During incubation, the hepatocyte suspensions were continuously shaken at 580 rpm and aliquots were taken at 2, 8, 16, 30, 45 and 90 min, to which equal volumes of cold methanol were immediately added. Samples were frozen at −20° C. over night, after subsequently centrifuged for 15 minutes at 3000 rpm and the supernatant was analyzed with an Agilent 1290 HPLC-system with LCMS/MS detection.
The half-life of a test compound was determined from the concentration-time plot. From the half-life the intrinsic clearances were calculated. Together with the additional parameters liver blood flow, amount of liver cells in vivo and in vitro. The hepatic in vivo blood clearance (CL) and the maximal oral bioavailability (Fmax) was calculated.

A further data set deals with NCI-H1734 cells. The data set is described as follows: Assay 1 cell proliferation measurement, NCI-H1734. The class given is cell-based. The following applies: Homo sapiens, Lung, read-out: Anti-proliferation IC50 [nM] NCI-H1734.
The subject of a further data set is IGR37 cells. In words: Assay 1 cell proliferation measurement (CTG, 72 h), IGR37. The class given is cell-based. The following applies: Homo sapiens, IGR-37, Cell Titer Glo, read-out: IGR37 IC50 [nM] (melanoma).
In another data set the test system is Hs 578T cells. The data set is described as follows: Assay 1 cell proliferation measurement, Hs 578T. Type of data set: cell-based. To be noted: Homo sapiens, Breast, read-out: Anti-proliferation IC50 [nM] Hs 578T.
The subject of a further data set is HEL 92.1.7 cells. In words: Assay 1 cell proliferation measurement, HEL 92.1.7. Type of data set: cell-based. To be noted: Homo sapiens, Erythroleukemia, read-out: Anti-proliferation IC50 [nM] HEL 92.1.7.
In another data set the test system is PA-1 cells. In words: Assay 1 cell proliferation measurement, PA-1. The class given is cell-based. To be noted: Homo sapiens, Ovarian teratocarcinoma, read-out: Anti-proliferation IC50 [nM] PA-1.
The test system of the next data set is DBTRG-05-MG cells. The data set is described as follows: Assay 1 cell proliferation measurement, DBTRG-05-MG. The class given is cell-based. The following applies: Homo sapiens, Glioblastoma, read-out: Anti-proliferation IC50 [nM] DBTRG-05-MG.
Another data set deals with A-2058 cells. In words: Assay 1 cell proliferation measurement, A-2058. The class given is cell-based. To be noted: Homo sapiens, A2058; Melanoma; read-out: Anti-proliferation IC50 [nM] A-2058.
A further data set deals with CHL-1 cells. In words: Assay 1 cell proliferation measurement, CHL-1. Type of data set: cell-based. The following applies: Homo sapiens, Melanoma, read-out: Anti-proliferation IC50 [nM] CHL-1.
A further data set has as its system DK-MG cells. The data set is described as follows: Assay 1 cell proliferation measurement, DK-MG. To be noted: Homo sapiens; Glioblastoma; read-out: Anti-proliferation IC50 [nM] DK-MG. Type of data set: cell-based.

human full length PDE3B, sequence (Q13370 whole entry): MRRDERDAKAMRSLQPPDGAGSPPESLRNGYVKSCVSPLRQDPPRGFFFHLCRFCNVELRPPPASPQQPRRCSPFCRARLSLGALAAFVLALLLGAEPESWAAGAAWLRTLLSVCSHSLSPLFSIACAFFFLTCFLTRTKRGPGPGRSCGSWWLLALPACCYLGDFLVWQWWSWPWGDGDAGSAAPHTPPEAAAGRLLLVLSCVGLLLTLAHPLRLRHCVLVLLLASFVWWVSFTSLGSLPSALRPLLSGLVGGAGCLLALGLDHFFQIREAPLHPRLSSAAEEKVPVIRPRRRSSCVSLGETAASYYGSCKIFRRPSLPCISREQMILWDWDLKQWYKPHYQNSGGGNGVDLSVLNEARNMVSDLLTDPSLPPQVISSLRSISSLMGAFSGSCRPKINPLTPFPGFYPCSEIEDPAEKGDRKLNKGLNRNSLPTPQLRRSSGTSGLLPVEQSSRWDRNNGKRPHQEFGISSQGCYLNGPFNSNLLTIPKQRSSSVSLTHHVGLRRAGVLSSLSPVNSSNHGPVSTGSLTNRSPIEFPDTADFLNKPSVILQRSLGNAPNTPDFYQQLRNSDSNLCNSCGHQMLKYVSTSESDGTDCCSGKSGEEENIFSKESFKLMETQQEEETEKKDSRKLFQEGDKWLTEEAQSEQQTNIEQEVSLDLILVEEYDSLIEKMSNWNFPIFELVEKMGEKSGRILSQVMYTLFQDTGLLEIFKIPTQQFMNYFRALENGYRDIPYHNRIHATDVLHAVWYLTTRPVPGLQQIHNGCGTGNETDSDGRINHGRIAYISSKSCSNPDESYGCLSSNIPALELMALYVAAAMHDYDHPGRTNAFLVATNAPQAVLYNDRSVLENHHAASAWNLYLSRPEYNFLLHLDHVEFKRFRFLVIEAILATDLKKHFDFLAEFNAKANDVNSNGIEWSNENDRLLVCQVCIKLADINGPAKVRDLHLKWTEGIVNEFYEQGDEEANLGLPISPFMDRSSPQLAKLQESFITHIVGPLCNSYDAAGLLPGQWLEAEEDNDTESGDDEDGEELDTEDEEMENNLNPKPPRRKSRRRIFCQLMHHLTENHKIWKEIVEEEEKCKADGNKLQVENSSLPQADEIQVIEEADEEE
human full length PDE3A, sequence (Q14432 whole entry): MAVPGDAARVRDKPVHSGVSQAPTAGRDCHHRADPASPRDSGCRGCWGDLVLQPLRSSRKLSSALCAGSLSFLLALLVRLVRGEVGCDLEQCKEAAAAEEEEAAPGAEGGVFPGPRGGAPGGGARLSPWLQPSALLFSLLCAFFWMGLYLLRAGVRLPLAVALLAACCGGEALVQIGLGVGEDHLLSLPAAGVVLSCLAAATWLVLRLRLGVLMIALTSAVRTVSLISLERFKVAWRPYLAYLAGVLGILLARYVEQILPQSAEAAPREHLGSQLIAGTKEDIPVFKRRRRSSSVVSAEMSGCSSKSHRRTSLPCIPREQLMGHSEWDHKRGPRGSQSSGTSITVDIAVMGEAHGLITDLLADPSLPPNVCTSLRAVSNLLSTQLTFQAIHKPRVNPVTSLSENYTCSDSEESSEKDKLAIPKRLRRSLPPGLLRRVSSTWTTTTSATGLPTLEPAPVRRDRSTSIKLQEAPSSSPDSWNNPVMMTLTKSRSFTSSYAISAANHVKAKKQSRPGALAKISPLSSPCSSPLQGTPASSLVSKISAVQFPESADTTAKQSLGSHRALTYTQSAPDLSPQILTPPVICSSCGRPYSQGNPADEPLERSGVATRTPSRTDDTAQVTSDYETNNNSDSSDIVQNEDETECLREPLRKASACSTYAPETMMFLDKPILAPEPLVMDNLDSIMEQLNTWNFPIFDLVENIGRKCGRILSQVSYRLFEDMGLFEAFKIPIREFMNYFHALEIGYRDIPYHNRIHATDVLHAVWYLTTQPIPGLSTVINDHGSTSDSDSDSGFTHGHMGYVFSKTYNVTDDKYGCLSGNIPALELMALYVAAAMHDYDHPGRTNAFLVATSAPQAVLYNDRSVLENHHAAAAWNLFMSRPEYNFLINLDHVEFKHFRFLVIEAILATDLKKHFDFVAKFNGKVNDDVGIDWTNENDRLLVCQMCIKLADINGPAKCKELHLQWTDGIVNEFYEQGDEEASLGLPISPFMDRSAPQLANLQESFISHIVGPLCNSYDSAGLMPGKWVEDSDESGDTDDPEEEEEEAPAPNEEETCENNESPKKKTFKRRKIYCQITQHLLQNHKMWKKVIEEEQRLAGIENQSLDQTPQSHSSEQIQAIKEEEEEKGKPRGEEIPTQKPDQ

Turning to `O=C1NN=C(c2ccc(N3CCOCC3)c(F)c2)CO1` [Example 4, 5-[3-Fluoro-4-(morpholin-4-yl)phenyl]-3,6-dihydro-2H-1,3,4-oxadiazin-2-one], the IC50 at human full length PDE3B was determined as 154 nM; in the data set on SK-MEL-3 cells, 16 nM; with H4 cells, 47 nM; with HeLa cells it was 7 nM; on human full length PDE3A, 203 nM; in the data set with NCI-H1734 cells, 40 nM. In addition, in data set [1], the Clblood was less than 0.17 mL/min/kg. In addition, the Fmax in [1] is reported as 100%.
Regarding `Cc1cc(C2=NNC(=O)OC2)ccc1-c1ccc(F)cc1` [Example 7, 5-(4′-Fluoro-2-methylbiphenyl-4-yl)-3,6-dihydro-2H-1,3,4-oxadiazin-2-one], the IC50 was determined as 170 nM against human full length PDE3B; 13 nM with SK-MEL-3 cells; 44 nM with H4 cells; 5 nM in the data set with HeLa cells; 220 nM against human full length PDE3A; 26 nM in the data set on NCI-H1734 cells. In addition, the Clblood in [1] is 5.5 mL/min/kg. Besides, the Fmax in [1] was 75%.
As to `Cc1cc(C2=NNC(=O)OC2)ccc1-c1ccc(F)c(F)c1` [Example 8, 5-(3′,4′-Difluoro-2-methylbiphenyl-4-yl)-3,6-dihydro-2H-1,3,4-oxadiazin-2-one], the IC50 against human full length PDE3B turned out to be 243 nM; in the data set with SK-MEL-3 cells it was 18 nM; in the data set with H4 cells it was 50 nM; with HeLa cells it was 6 nM; with IGR37 cells it was 16 nM; against human full length PDE3A, 210 nM. Also, the IC50 with NCI-H1734 cells turned out to be 42 nM.
As to `O=C1NN=C(c2ccc(-c3ccc(C(F)F)cc3)c(F)c2)CO1` [Example 92, 5-[4′-(Difluoromethyl)-2-fluoro[1,1′-biphenyl]-4-yl]-3,6-dihydro-2H-1,3,4-oxadiazin-2-one], the IC50 against human full length PDE3B stood at 130 nM; with Hs 578T cells, 31 nM; in the data set on SK-MEL-3 cells, 4 nM; in the data set with HEL 92.1.7 cells it was 9 nM; in the data set with PA-1 cells it was 17 nM; with DBTRG-05-MG cells it was 18 nM. Moreover, the IC50 with HeLa cells was determined as 2 nM; in the data set with IGR37 cells, 4 nM; in the data set with A-2058 cells, 18 nM; against human full length PDE3A, 68 nM; in the data set with CHL-1 cells, 11 nM; in the data set with DK-MG cells, 17 nM.
For the molecule `Cc1ccc(C2=NNC(=O)OC2)cc1C(F)(F)F` [Example 139, 5-[4-Methyl-3-(trifluoromethyl)phenyl]-3,6-dihydro-2H-1,3,4-oxadiazin-2-one], the IC50 is 310 nM against human full length PDE3B; greater than 100 nM in the data set on Hs 578T cells; 29 nM with SK-MEL-3 cells; greater than 100 nM in the data set with HEL 92.1.7 cells; greater than 100 nM in the data set on PA-1 cells; greater than 100 nM in the data set on DBTRG-05-MG cells. The IC50 was 14 nM in the data set with HeLa cells; 40 nM in the data set with IGR37 cells; greater than 100 nM in the data set on A-2058 cells; 140 nM against human full length PDE3A; 58 nM in the data set with CHL-1 cells; 61 nM with DK-MG cells.
Consider `O=C1NN=C(c2ccc(-c3ccccc3C(F)F)c(F)c2)CO1` [Example 161, 5-[2′-(Difluoromethyl)-2-fluoro[1,1′-biphenyl]-4-yl]-3,6-dihydro-2H-1,3,4-oxadiazin-2-one], for which the IC50 at human full length PDE3B was 49 nM; with SK-MEL-3 cells it was 10 nM; with HeLa cells, 6 nM; in the data set with IGR37 cells it was 12 nM; against human full length PDE3A, 66 nM. In addition, the Clblood in data set [1] is 9.17 mL/min/kg. For the same molecule, the Fmax in [1] was 59%.
With `C[C@@H]1OC(=O)NN=C1c1ccc(-c2ccnc(N)c2)c(C(F)(F)F)c1` [Example 165, (6S)-5-[4-(2-Aminopyridin-4-yl)-3-(trifluoromethyl)phenyl]-6-methyl-3,6-dihydro-2H-1,3,4-oxadiazin-2-one], the IC50 against human full length PDE3B was 66 nM; with SK-MEL-3 cells it was 1 nM; with HeLa cells, 1 nM; in the data set with IGR37 cells it was 1 nM; against human full length PDE3A, 77 nM. Besides, the Clblood in [1] was 14.7 mL/min/kg. Moreover, the Fmax in [1] is listed as 33%.
On to `C[C@@H]1OC(=O)NN=C1c1ccc(-c2cnn(C(F)F)c2)c(C(F)(F)F)c1` [Example 190, (6S)-5-{4-[1-(Difluoromethyl)-1H-pyrazol-4-yl]-3-(trifluoromethyl)phenyl}-6-methyl-3,6-dihydro-2H-1,3,4-oxadiazin-2-one], for which the IC50 against human full length PDE3B stood at 25 nM; in the data set with SK-MEL-3 cells, 0.4 nM; with HeLa cells, 0.2 nM; in the data set on IGR37 cells it was 0.4 nM; at human full length PDE3A, 38 nM. Besides, the Clblood in data set [1] was 15 mL/min/kg. The Fmax in data set [1] was 32%.
As for `COCCCc1ccc(C2=NNC(=O)OC2)cc1C(F)(F)F` [Example 267, 5-[4-(3-Methoxypropyl)-3-(trifluoromethyl)phenyl]-3,6-dihydro-2H-1,3,4-oxadiazin-2-one], the IC50 against human full length PDE3B was 185 nM; in the data set on Hs 578T cells, 34 nM; with SK-MEL-3 cells, 5 nM; with HEL 92.1.7 cells, 26 nM; in the data set on PA-1 cells, 44 nM; in the data set on DBTRG-05-MG cells it was 35 nM. Further, the IC50 with HeLa cells amounted to 2 nM; in the data set on IGR37 cells it was 7 nM; in the data set with A-2058 cells, 40 nM; against human full length PDE3A it was 145 nM; with CHL-1 cells, 16 nM; in the data set with DK-MG cells, 18 nM. Also, the Clblood in [1] is 4.5 mL/min/kg. Besides, the Fmax in data set [1] is on record as 80%.
Turning to `CC(C)(C)CCc1ccc(C2=NNC(=O)OC2)cc1C(F)(F)F` [Example 269, 5-[4-(3,3-Dimethylbutyl)-3-(trifluoromethyl)phenyl]-3,6-dihydro-2H-1,3,4-oxadiazin-2-one], the IC50 at human full length PDE3B was found to be 790 nM; with Hs 578T cells, 66 nM; with SK-MEL-3 cells, 17 nM; in the data set on HEL 92.1.7 cells, 44 nM; in the data set with PA-1 cells, 49 nM; with DBTRG-05-MG cells, 50 nM. The IC50 in the data set with HeLa cells worked out at 6 nM; in the data set on IGR37 cells it was 24 nM; in the data set on A-2058 cells, 61 nM; against human full length PDE3A, 695 nM; with CHL-1 cells, 47 nM; in the data set with DK-MG cells it was 49 nM. Also, the Clblood in data set [1] is 6.83 mL/min/kg. Also, in data set [1], the Fmax was 69%.
In the case of `C[C@@H]1OC(=O)NN=C1c1ccc(N2CCN(C)CC2)c(C(F)(F)F)c1` [Example 277, (6S)-6-Methyl-5-[4-(4-methylpiperazin-1-yl)-3-(trifluoromethyl)phenyl]-3,6-dihydro-2H-1,3,4-oxadiazin-2-one], the IC50 on human full length PDE3B was 87 nM; in the data set on Hs 578T cells, greater than 100 nM; in the data set with SK-MEL-3 cells, 1 nM; in the data set on HEL 92.1.7 cells, greater than 100 nM; in the data set on PA-1 cells it was greater than 100 nM; in the data set on DBTRG-05-MG cells, greater than 100 nM. The IC50 in the data set on HeLa cells was 0.3 nM; in the data set on IGR37 cells, 1 nM; with A-2058 cells it was greater than 100 nM; on human full length PDE3A, 100 nM; with CHL-1 cells it was greater than 100 nM; in the data set with DK-MG cells, greater than 100 nM.
